Measurements from BigSolDB 2.1.

CC(C)C(=O)OCC(=O)[C@@]12O[C@H](C3CCCCC3)O[C@@H]1C[C@H]1[C@@H]3CCC4=CC(=O)C=C[C@]4(C)[C@H]3[C@@H](O)C[C@@]12C
solubility (mole fraction)
Details	in acetonitrile	in ethanol	in ethyl acetate	in isopropanol	in n-butanol	in n-propanol	in toluene
278.15 K	0.00485	0.00231	0.0515	0.00814	0.0669	0.0141	0.0297
280.65 K	0.00528	0.00276	0.0559	0.00948	0.0689	0.0164	0.0318
283.15 K	0.00576	0.00333	0.0604	0.0111	0.0716	0.0191	0.0342
285.65 K	0.00626	0.00398	0.0653	0.013	0.0743	0.0222	0.0367
288.15 K	0.00687	0.00478	0.0704	0.0151	0.0779	0.025	0.0392
290.65 K	0.00739	0.00568	0.076	0.0175	0.0815	0.029	0.0421
293.15 K	0.008	0.00674	0.0818	0.0203	0.0852	0.0334	0.0449
295.65 K	0.00865	0.00796	0.088	0.0234	0.0898	0.0385	0.0479
298.15 K	0.00937	0.00937	0.0945	0.0271	0.0942	0.0437	0.0511
300.65 K	0.0101	0.011	0.101	0.0312	0.0993	0.05	0.0544
303.15 K	0.0109	0.0129	0.109	0.0359	0.105	0.0567	0.0579
305.65 K	0.0117	0.0151	0.116	0.0411	0.111	0.0644	0.0616
308.15 K	0.0126	0.0176	0.124	0.047	0.118	0.0728	0.0654
310.65 K	0.0135	0.0204	0.133	0.0536	0.124	0.0825	0.0694
313.15 K	0.0143	0.0237	0.141	0.061	0.131	0.0925	0.0735
